Tests used:
[1] = tested on: human breast cancer (MDA-MB-231) cell line; assay: anti-proliferative activity in CESCO bellows bottle perfusion model; assay type: cell-based; conditions: 144 h, MDA MB 231 cells in vitro, exposure for 6 days with daily refreshment, read-out: anti-proliferative (pro-apoptotic) IC50
Experimental: FIGS. 8A and 8B depict the anti-proliferative activities of unmodified tetrac, unmodified resveratrol (RV) and the combination thereof against a human breast cancer (MDA-MB-231) cell line in vitro. The cell line is estrogen receptor (ER)-negative. The test system is a CESCO bellows bottle perfusion model in which cancer cells adhere to plastic flakes and are then exposed to continuous, recycled flow of chemotherapeutic agent in an oxygenated environment. Polyphenol (10 μM) or tetrac (0.1 μM) in DMEM buffer, supplemented with fetal bovine serum, are refreshed daily. […] Results shown are means of triplicate experiments.
MDA-MB cells were seeded in perfusion CESCO bellow bottles. Cells were refreshed with 1% FBS containing DMEM after 24 h incubation. Cells were then treated with tetrac (10^−7 M), or resveratrol (0.1 mM) or both. Resveratrol was added daily and tetrac was added every three days. Cells were harvested as indicated dates and counted.

MDA-MB-231 cells = assay: RNA microarray of differentially-regulated genes; assay type: cell-based, human; conditions: FIG. 9

With `Oc1ccc(C=Cc2cc(O)cc(O)c2)cc1` [resveratrol] the IC50 [1] was 100 nM, the “expression of pro-apoptotic genes CASP2 and NLRP1 (NALP1)” value (MDA-MB-231 cells; 10 μM, 24 h) was “upregulated” and the “expression of tumor markers FTCD (hepatoma) and leukemogenic FUS gene” value (MDA-MB-231 cells; 10 μM, 24 h) was “suppressed”. For the same compound, the “expression of cancer-relevant genes FUS, AAKJ, USP6 (Tre6)” value (MDA-MB-231 cells) was “downregulated”.

— patent publication US20100159021A1, “Small Molecule Ligands of the Integrin RGD Recognition Site and Methods of Use” (priority 2008, published 2010)
